In patent US20250179103A1, “6-OXODECAHYDROPYRROLO[1,2-A][1,5]DIAZOCINE AND 6-OXODECAHYDRO-4H-PYRROLO[2,1-D][1,5]THIAZOCINE DERIVATIVES AS STAT3 AND STAT6 MODULATORS FOR THE TREATMENT OF CANCER AND INFLAMMATORY CONDITIONS” (Recludix Pharma, Inc., priority 2022, published 2025):

Columns and labels:
[1] = tested on: pY705-STAT3 in Peripheral Blood Mononuclear Cells (PBMC); experiment: MSD-pSTAT-PBMC Assay (pSTAT3, IL-6 stimulated); format: cell-based, Human; conditions: Homo sapiens, compound 3 hrs, then 10 ng/mL IL-6 for 10 min
Excerpt: Cryopreserved Peripheral Blood Mononuclear Cells (PBMC) are from AllCells. Recombinant Human IL-4 and IL-6 are from Peprotech. Mouse monoclonal anti-STAT3 antibody, rabbit monoclonal anti-pY705-STAT3 antibody, rabbit monoclonal Anti-pY641-STAT6 antibody, and lysis buffer are from Cell Signaling Technology (CST). Mouse monoclonal anti-STAT6 antibody is from BioLegend. Assay plates, blocker, and anti-rabbit secondary antibody are from Meso Scale Discovery (MSD).
Cryopreserved PBMCs were thawed out and allowed to recover overnight in IMDM+10% heat-inactivated FBS prior to plating 50,000 (STAT3) or 25,000 (STAT6) cells per well in 96-well U-bottom tissue culture plates. Cells were treated with compound for 3 hrs, then stimulated with 10 ng/mL IL-6 (STAT3) or 1 ng/mL IL-4 (STAT6) for 10 min. Cells were then spun down and washed with ice-cold PBS prior to lysing the cell pellet with 1× lysis buffer (CST) with 1×HALT protease and phosphatase inhibitor cocktail (Thermo). Lysates were transferred to and incubated overnight at 4° C. with shaking in QuickPlex 96-well high bind assay plates (MSD) pre-coated overnight with 30 μL per well of 0.6 μg/mL mouse monoclonal anti-STAT3 antibody (STAT3) or 2 μg/mL mouse monoclonal anti-STAT6 antibody (STAT6) in 1×PBS, and pre-blocked for 1 hour with 3% Blocker-A (MSD). Captured protein in the assay plates were then washed and probed with 25 μL per well of 0.25 μg/ml rabbit monoclonal anti-pY705-STAT3 antibody (STAT3) or […] rabbit monoclonal Anti-pY641-STAT6 antibody (STAT6) in 1% Blocker-A for 1 hour at room temperature with shaking, then washed and probed with 25 ul per well of 1 ug/ml Sulfo-TAG Labeled Goat Anti-Rabbit Antibody (MSD) in 1% Blocker-A for 1 hour at room temperature with shaking. Assay plates were then washed and 150 μL of 1× Read Buffer-T (MSD) was added to each well prior to reading on an SQ120 MSD Plate Reader. Assay signal from each sample was subtracted by the signal from unstimulated control wells and normalized to DMSO control wells. IC50 values were calculated using Graph Pad Prism Dose-Response Nonlinear Regression with variable slope. For both pSTAT3 and pSTAT6 A=≤100 nM; B=>100-1000 nM; C=>1000-3000 nM; and D=>3 μM.

[2] = tested on: pY641-STAT6 in Peripheral Blood Mononuclear Cells (PBMC); experiment: MSD-pSTAT-PBMC Assay (pSTAT6, IL-4 stimulated); format: cell-based, Human; conditions: Homo sapiens, compound 3 hrs, then 1 ng/mL IL-4 for 10 min
Procedure, shortened: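 Phospho-STAT readout used MSD electrochemiluminescence with total STAT3 or STAT6 capture in lysates of cryopreserved human PBMCs. Cells had 3 h compound exposure before a 10 min cytokine pulse: IL-6 10 ng/mL for pSTAT3, IL-4 1 ng/mL for pSTAT6. IC50 came from background-subtracted, DMSO-normalised signal, with categories A≤100 nM up to D>3 μM.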

| SMILES | IC50 [1] | IC50 [2] |
| --- | --- | --- |
| CCCC(=O)SCCOP(=O)(OCCSC(=O)CCC)C(F)(F)c1ccc2ccc(C(=O)N[C@H]3CN(C(C)=O)CC[C@H]4CC[C@@H](C(=O)N5C[C@H](c6cc[nH]c(=O)c6)[C@@H](C#N)C5)N4C3=O)cc2c1 (single isomer, unassigned) [Compound 304, S,S′-(((((7-(((5S,8S, 10aR)-3-acetyl-8-((3R,4S or 3S,4R)-3-cyano-4-(2-oxo-1,2-dihydro-pyridin-4-yl)pyrrolidine-1-carbonyl)-6-oxodecahydro-pyrrolo[1,2-a][1,5]diazocin-5-yl)carbamoyl)naphthalen-2-yl)difluoro-methyl)phos-phoryl)bis(oxy))bis(ethane-2,1-diyl))di-butanethioate] | > 3 µM | 0.1 to 1 µM |
| CC(=O)N1CC[C@H]2CC[C@@H](C(=O)N(C)c3ccccc3)N2C(=O)[C@@H](NC(=O)/C=C/c2ccc(C(F)(F)P(=O)(OCOC(=O)C(C)(C)C)OCOC(=O)C(C)(C)C)cc2)C1 [Compound 315, ((((4-((E)-3-(((5S,8S, 10aR)-3-acetyl-8-(methyl (phenyl)carbamoyl)-6-oxodecahydro-pyrrolo[1,2-a][1,5]diazocin-5-yl)amino)-3-oxoprop-1-en-1-yl)phenyl)difluoro-methyl)phosphoryl)bis(oxy))bis (methylene) bis(2,2-dimethylpro-panoate)] | > 3 µM | 0.1 to 1 µM |
| CNC(=O)[C@@H]1CC[C@@H]2CCN(C(=O)c3n[nH]c4ccc(C)cc34)C[C@H](NC(=O)c3ccc4ccc(C(F)(F)P(=O)(OCCSC(=O)CC(C)C)OCCSC(=O)CC(C)C)cc4c3)C(=O)N21 [Compound 329, S,S′-((((difluoro(7-(((5S,8S,10aR)-3-(5-methyl-1H-indazole-3-carbonyl)-8-(methylcarbamoyl)-6-oxodecahydropyrrolo[1,2-a][1,5]diazocin-5-yl)carbamoyl)naphthalen-2-yl)methyl)phosphoryl)bis(oxy))bis(ethane-2,1-diyl)) bis(3-methylbutanethioate)] | 1 to 3 µM | ≤ 0.1 µM |
| COC(=O)N1CC[C@H]2CC[C@@H](C(=O)N3C[C@H](c4ccccc4)[C@@H](C#N)C3)N2C(=O)[C@@H](NC(=O)c2cc3cc(C(F)(F)P(=O)(OCOC(=O)C(C)(C)C)OCOC(=O)C(C)(C)C)ccc3s2)C1 (relative stereo) [Compound 349, ((((2-(((5S,8S,10aR)-8-((rel-trans)-3-cyano-4-phenylpyrrolidine-1-carbonyl)-3-(methoxycarbonyl)-6-oxodecahydropyrrolo[1,2-a][1,5]diazocin-5-yl)carbamoyl)benzo[b]thiophen-5-yl)difluoromethyl)phosphoryl)bis(oxy)) bis(methylene) bis(2,2-dimethylpropanoate)] | 0.1 to 1 µM | ≤ 0.1 µM |
| CCCC(=O)SCCOP(=O)(OCCSC(=O)CCC)C(F)(F)c1ccc2ccc(C(=O)N[C@H]3CCN(CC(F)F)C[C@H]4CC[C@@H](C(=O)N5CC(c6cc[nH]c(=O)c6)CC56CC6)N4C3=O)cc2c1 (stereo partly drawn) [Compound 335, S,S′-(((((7-(((5S,8S,10aR)-2-(2,2-difluoroethyl)-6-oxo-8-(6-(2-oxo-1,2-dihydropyridin-4-yl)-4-azaspiro[2.4]heptane-4-carbonyl)decahydropyrrolo [1,2-a][1,4]diazocin-5-yl)carbamoyl)naphthalen-2-yl)difluoromethyl)phosphoryl)bis(oxy))bis(ethane-2,1-diyl))dibutanethioate] | 1 to 3 µM | ≤ 0.1 µM |
| Cc1ccc2[nH]nc(C(=O)N3CC[C@H]4CC[C@@H](C(=O)N(C)C)N4C(=O)[C@@H](NC(=O)c4cc5cc(CP(=O)(N[C@@H](C)C(=O)OC(C)C)Oc6ccccc6)ccc5s4)C3)c2c1 (stereo partly drawn) [Compound 337, isopropyl(((2-(((5S,8S,10aR)-8-(dimethylcarbamoyl)-3-(5-methyl-1H-indazole-3-carbonyl)-6-oxodecahydropyrrolo[1,2-a][1,5]diazocin-5-yl)carbamoyl)benzo [b]thiophen-5-yl)methyl)(phenoxy)phosphoryl)-L-alaninate] | > 3 µM | > 3 µM |
| CNC(=O)C[C@@H](Cc1ccc(OC)cc1)NC(=O)[C@@H]1CC[C@@H]2CCN(C(=O)c3n[nH]c4ccc(C)cc34)C[C@H](NC(=O)c3ccc4ccc(C(F)(F)P(=O)(O)O)cc4c3)C(=O)N21 [Compound 239, (difluoro(7-(((5S,8S,10aR)-8-(((R)-1-(4-methoxyphenyl)-4-(methylamino)-4-oxobutan-2-yl)carbamoyl)-3-(5-methyl-1H-indazole-3-carbonyl)-6-oxodecahydropyrrolo[1,2-a][1,5]diazocin-5-yl)carbamoyl)naphthalen-2-yl)methyl)phosphonic acid] | 0.1 to 1 µM | 0.1 to 1 µM |
| CCN1CC[C@H]2CC[C@@H](C(=O)N3C[C@@H](C#N)[C@H](c4ccccc4)C3)N2C(=O)[C@@H](NC(=O)c2cc3cc(C(F)(F)P(=O)(OCCSC(=O)C(C)(C)C)OCCSC(=O)C(C)(C)C)ccc3s2)C1 (single isomer, unassigned) [Compound 330, S,S′-(((((2-(((5S,8S,10aR)-8-((3S,4R or 3R,4S)-3-cyano-4-phenylpyrrolidine-1-carbonyl)-3-ethyl-6-oxodecahydropyrrolo[1,2-a][1,5]diazocin-5-yl)carbamoyl)benzo[b]thiophen-5-yl)difluoromethyl)phosphoryl)bis(oxy))bis(ethane-2,1-diyl)) bis(2,2-dimethylpropanethioate)] | 1 to 3 µM | 1 to 3 µM |
| CCCC(=O)SCCOP(=O)(OCOC(=O)OC(C)C)C(F)(F)c1ccc2ccc(C(=O)N[C@H]3CCN(CC(F)F)C[C@H]4CC[C@@H](C(=O)N5CC(c6cc[nH]c(=O)c6)CC56CC6)N4C3=O)cc2c1 (stereo partly drawn) [Compound 334, S-(2-((((7-(((5S,8S,10aR)-2-(2,2-difluoroethyl)-6-oxo-8-(6-(2-oxo-1,2-dihydropyridin-4-yl)-4-azaspiro[2.4]heptane-4-carbonyl)decahydropyrrolo[1,2-a][1,4]diazocin-5-yl)carbamoyl)naphthalen-2-yl)difluoromethyl) (((isopropoxycarbonyl)oxy)methoxy)phosphoryl)oxy)ethyl)butanethioate] | 0.1 to 1 µM | ≤ 0.1 µM |
| COC(=O)[C@@H]1CCCN1C(=O)OCOP(=O)(OCOC(=O)N1CCC[C@H]1C(=O)OC)C(F)(F)c1ccc2sc(C(=O)N[C@H]3CN(C(C)=O)CC[C@H]4CC[C@@H](C(=O)N(C)c5ccccc5)N4C3=O)cc2c1 [Compound 288, O′1,O1-(((((2-(((5S, 8S,10aR)-3-acetyl-8-(methyl (phenyl)carbamoyl)-6-oxodecahydro-pyrrolo[1,2-a][1,5]diazocin-5-yl)carbamoyl)benzo[b]thiophen-5-yl)difluoro-methyl)phos-phoryl)bis(oxy))bis (methylene)) 2,2′-dimethyl (2S,2′S)-bis (pyrrolidine-1,2-dicarboxylate)] | > 3 µM | > 3 µM |
| CC(=O)N1CC[C@H]2CC[C@@H](C(=O)N3C[C@@H](C#N)[C@H](c4cc[nH]c(=O)c4)C3)N2C(=O)[C@@H](NC(=O)c2ccc3ccc(C(F)(F)P(=O)(OCCSC(=O)CC(C)C)OCCSC(=O)CC(C)C)cc3c2)C1 (single isomer, unassigned) [Compound 306, S,S′-(((((7-(((5S,8S, 10aR)-3-acetyl-8-((3S,4R or 3r,4S)-3-cyano-4-(2-oxo-1,2-dihydro-pyridin-4-yl)pyrrolidine-1-carbonyl)-6-oxodecahydro-pyrrolo[1,2-a][1,5]diazocin-5-yl)carbamoyl)naphthalen-2-yl)difluoro-methyl)phos-phoryl)bis(oxy))bis(ethane-2,1-diyl)) bis(3-methylbutane-thioate)] | > 3 µM | 1 to 3 µM |
| CC(=O)N1CC[C@H]2CC[C@@H](C(=O)Nc3ccc(-c4ccccc4)cc3)N2C(=O)[C@@H](NC(=O)/C=C/c2ccc(C(F)(F)P(=O)(OCOC(=O)C(C)(C)C)OCOC(=O)C(C)(C)C)cc2)C1 [Compound 324, ((((4-((E)-3-(((5S,8S, 10aR)-8-([1,1′-biphenyl]-4-ylcarbamoyl)-3-acetyl-6-oxodecahydro-pyrrolo[1,2-a][1,5]diazocin-5-yl)amino)-3-oxoprop-1-en-1-yl)phenyl)difluoro-methyl)phosphoryl)bis(oxy))bis (methylene) bis(2,2-dimethylpro-panoate)] | > 3 µM | > 3 µM |
